Assays:
[1] = target: T1, Lin28A protein (Homo sapiens, UniProt Q9H9Z2); assay: Western blotting of Lin28A protein in cancer cell models; type: cell-based; settings: YP-MEL, BT-37, NT-2 cells
T1 construct: in a panel of endogenously LIN28 expressing cancer cell models; endogenous in cells; host or cells: T47D, YP-MEL, BT-12, BT-37, NT-2 (NTERA)
T1 sequence (Q9H9Z2 1-209): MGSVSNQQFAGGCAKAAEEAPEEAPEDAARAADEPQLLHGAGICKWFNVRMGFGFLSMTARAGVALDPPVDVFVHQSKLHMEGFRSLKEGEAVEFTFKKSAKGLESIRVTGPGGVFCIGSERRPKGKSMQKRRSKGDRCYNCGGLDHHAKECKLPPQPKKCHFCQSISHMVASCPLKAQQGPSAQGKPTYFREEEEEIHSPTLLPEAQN
Experimental: (§1) FIG. 5: Compound of formula (I) mixture, containing the two isomers (P1+P2) causes significant reduction in Lin28A protein from 5 μM onwards, in a panel of endogenously LIN28 expressing cancer cell models. […] LIN28A and LIN28B expression profile in pediatric CNS cancer cell lines, 96-hr post-treatment with Compound of formula (I). SDS-PAGE on 10% polyacrylamide gel of total cell lysates from untreated cells harvested at 80-90% confluency. Samples loaded with volumes for 20 μg protein. LIN28A and LIN28B proteins were detected using the anti-LIN28A antibody (#8706; Cell Signaling Technology) and anti-LIN28B antibody (#11965; Cell Signalling Technology) at 1:2000 dilutions. T47D: adult breast cancer (LIN28A expressing); YPMEL: malignant melanoma derived from Neurocutaneous Melanosis (NCM) (Lin28A and Lin28B expressing); BT-12: pediatric atypical-teratoid rhabdoid tumor (AT/RT).
FIG. 7A-C: To determine the differences in the biological activity of the two isomers (P1+P2) of Compound of formula (I), we tested the effects of purified and separated P1 and P2 isomers on the protein expression of Lin28A and Lin28B. (A) YP-MEL (NCM). (B) BT-37 (AT/RT). (C) NT-2 (NTERA) (Testicular cancer).
(§2) The proteins were extracted from the same samples as the RNA using the RIPA lysis buffer. The protein extracts (20 μg) were run on 10% SDS-PAGE and transferred on a nitrocellulose blotting membrane 0.22 μm (GE Healthcare) using the Trans-Blot® SD semi-dry transfer devise (Biorad). The proteins were detected using the anti-Lin28A antibody (#8706; Cell Signaling Technology), anti-Lin28B antibody (#11965, Cell Signaling Technology) the anti-beta-actin antibody at respectively 1:2000, 1:2000 and 1:5000 dilutions.

[2] = target: T2, LIN28B protein (Homo sapiens, UniProt Q6ZN17); assay: Western blotting of Lin28B protein in cancer cell models; type: cell-based; settings: YP-MEL, BT-37, NT-2 cells; at the tested dosages
T2 construct: in a panel of endogenously LIN28 expressing cancer cell models; endogenous in cells; host or cells: YP-MEL, BT-12, BT-37, NT-2 (NTERA)
T2 sequence (Q6ZN17 1-250): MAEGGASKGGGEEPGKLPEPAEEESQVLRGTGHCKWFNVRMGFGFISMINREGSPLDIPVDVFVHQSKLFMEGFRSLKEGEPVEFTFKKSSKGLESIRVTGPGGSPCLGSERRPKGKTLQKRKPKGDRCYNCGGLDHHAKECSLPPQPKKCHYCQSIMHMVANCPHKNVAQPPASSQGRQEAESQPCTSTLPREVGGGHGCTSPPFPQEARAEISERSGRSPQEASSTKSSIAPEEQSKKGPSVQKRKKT
Experimental: as §1, with “(AT/RT). […]” for “(AT/RT).”
The proteins were extracted from the same samples as the RNA using the RIPA lysis buffer. […] The proteins were detected using the anti-Lin28A antibody (#8706; Cell Signaling Technology), anti-Lin28B antibody (#11965, Cell Signaling Technology) the anti-beta-actin antibody at respectively 1:2000, 1:2000 and 1:5000 dilutions.

[3] = tested on: NT-2 testicular cancer cells; assay: Flow cytometric (propidium iodide) cell cycle analysis of NT-2 cells; type: cell-based; settings: 24h, compared with P1
Experimental: FIG. 9: NT-2, testicular cancer cells, were incubated with Compound of formula (I) isomers for 24h and subjected to Flow Cytometric analysis to determine the alterations in cancer cell cycle. […] Therefore, only the P1 isomer of Compound of formula (I) was investigated further to determine its in vitro and in vivo efficacy.
The method for Propidium Iodide (PI) based cell cycle analysis was performed as per the instructions given by the manufacturer (AB139418; Abcam). Briefly NT-2 cells treated with Compound of formula (I) versions were harvested in single cell suspensions with each experimental condition containing two million cells, fixed in 66% Ethanol overnight at 4° C. The ethanol was removed thoroughly by centrifugation, followed by rehydration of cells in PBS with a repeat of centrifugation. Cells were stained in PI (1%) and RNase solution (1%) in PBS for 30 minutes at 37° C. in the dark. The cells were analyzed immediately on the Flow Cytometer.

[4] = Solubility; type: physicochemical; settings: DMSO, organic solvent or mixture; read-out: solubility in DMSO
[5] = tested on: stem cell tumor spheres; assay: Stem cell tumor spheres, western blotting of stemness and differentiation markers; type: cell-based
Experimental: FIG. 12: Dose-dependent effect of Compound of formula (I) on the stem cell tumor spheres, in the presence of LIF—a pluripotency supplement used for maintenance of stem cell population (Panel A). As determined by western blotting, Compound of formula (I) begins to halt the expression of stemness markers (Nestin, LIN28A, Oct-4) and induces elevation of differentiation markers (GFAP), from 1 μM onwards (Panel B).
as §2

[6] = tested on: let-7a miRNA; assay: Taqman miRNA qRT-PCR of let-7a; type: cell-based
Experimental: FIG. 11: Compound of formula (I) lead to successful rescue of pre-Iet-7a and their maturation to miRNA let-7a tumor suppressor, only at 1 μM.
Total RNA was extracted using the RNeasy kit (74104, Qiagen). TaqMan® qRT-PCR was performed using standard reagents from Life Technologies (TaqMan® MicroRNA Assay: hsa-let-7a: 000377). The RT was performed using the TaqMan® primers from MicroRNA Assays and the TaqMan® MicroRNA Reverse Transcription Kit (4366596, Life technologies) with 20 ng total RNA. The PCR was performed in a LightCycler 480 instrument with GoTaq® Probe qPCR Master mix (A6102, Promega) according to the manufacturer's protocol. Each reaction was carried out in three technical replicates.

[7] = tested on: LIN28A-positive cancer cell models; assay: Alamar Blue cell viability, LIN28A-positive versus LIN28B-expressing cancer cell models; type: cell-based; settings: relative to LIN28B-expressing cancer cell models
Experimental: FIG. 6: Cells were cultured in the presence of the Compound of formula (I) (P1+P2) at increasing concentrations and cell viability was evaluated using Alamar Blue dye and measurement at Excitation of 550 nm and Emission of 590 nm. All the data shown are representative of three replicates. […] LIN28A and LIN28B expression in the presence of Compound of formula (I) correlates with the sensitivity of cells to this inhibitor.
(§3) FIG. 8A-F: Cells were cultured in the presence of the Compound of formula (I) (versions P1, P2 or P1+P2 at equipotent doses) at increasing concentrations and cell viability was evaluated using Alamar Blue dye and measurement at Excitation of 550 nm and Emission of 590 nm. All the data shown are representative of three replicates. […] A. NT-2 cell viability. B. YP-MEL cell viability. C. WI-38 cell viability. D. T47D cell viability. E. BT-12 cell viability. F. summary of Lin28A and Lin28B status.
as §3, with “8A-F.” for “8A-F:”, “F. summary of Lin28A and Lin28B status.” left out

[8] = tested on: BHQ1-pre-let7a and EGFP-Lin28A bound complexes; assay: FRET assay, displacement of BHQ1-pre-let7a from EGFP-Lin28A; type: binding; settings: at 100 μM
Experimental: This method was adapted from Roos et al (2016). HEK 293-T cells (ATCC) were cultured as monolayers in DMEM GlutaMAX™-1 (Cat #31966-021, Gibco®, Life Technologies) supplemented with 10% of FBS (fetal bovine serum). Stable EGFP-Lin28A HEK 293-T cells were cultured as monolayers in DMEM supplemented with 10% of FBS (fetal bovine serum) and 0.5 mg/ml Geneticin G418 (10131-035, Life Technologies). Transfections were performed according to the manufacturer's protocol with […] (12252-011, Invitrogen, Life Technologies) for siRNAs and JetPEI (101-10, Polyplus transfections) was used for plasmid DNA. […]
160,000 HEK 293 T cells were seeded per well in 6 well plates and transfected with 320 ng pEGFP-C2-Lin28A plasmid according to the experimental setup with the reagents described above and cells were allowed to recover for 48h. […] The EGFP-lin28A| expressing cells were sorted using Fluorescence Activated Cell Sorting (FACS). Finally, larger colonies of individual clones were analyzed for expression levels of EGFP-Lin28A by performing the FRET assay. […]
FRET system (EGFP-Lin28A and 19B-let7a) treated with DMSO was used as positive control. […] The FRET measurements were obtained from the optimized fluorescence parameter. […] The average signal intensity and background fluorescence were corrected with compound self-fluorescence with and without binding buffer.

CCC(C)C(NC(=O)C(Cc1ncc[nH]1)NC(=O)c1cccc(C(N)=O)c1)C(=O)Nc1ccc(O)c(-c2nc3ccccc3s2)c1 (centres unmarked) [Compound P2]
effect on the expression levels of Lin28A [1]: no effect | Lin28B expression [2]: remained unaltered | triggering of cancer cell death / changes in cancer cell viability [3]: failed to cause any significant changes | solubility [4]: < 1000 µg/mL

CC[C@H](C)[C@H](NC(=O)[C@H](Cc1ncc[nH]1)NC(=O)c1cccc(C(N)=O)c1)C(=O)Nc1ccc(O)c(-c2nc3ccccc3s2)c1 [Compound of formula (I)]
effect on stemness and differentiation markers in the stem cell population [5]: dose dependent reduction of sternness markers and elevation of differentiation markers | concentration from which stemness markers (Nestin, LIN28A, Oct-4) are halted and differentiation markers (GFAP) elevated ([5]; in the presence of LIF, western blotting): ≥ 1 µM | concentration giving rescue of pre-let-7a and maturation to miRNA let-7a [6]: 1 µM | upregulation of let-7a ([6]; Lin28B expressing BT-12 cells, relative to RNU6B): only minor upregulation | expression of let-7a miRNA tumor suppressor ([6]; YP-MEL, T47D, A549 cells, relative to RNU6B): increase in the expression | sensitivity of LIN28A-positive cancer cell models [7]: heightened sensitivity

CC(=O)N(C)c1cccc(-c2ccc3nnc(C)n3n2)c1 [c1632, reference compound]
FRET reduction compared with 70% by Compound of formula (I) [8]: equivalent FRET reduction
